Values of other authors in patent publication US10919913B2, “Spiro[3H-indole-3,2′-pyrrolidin]-2(1H)-one compounds and derivatives as MDM2-p53 inhibitors” (Boehringer Ingelheim International GmbH, priority 2014, dated 2021).

Test system: p53 wild-type vs. p53 mutant cell lines
Settings: in vitro, PPTP of the NCI (Carol et al. 2013)

In the case of `CCOc1cc(C(C)(C)C)ccc1C1=N[C@@](C)(c2ccc(Cl)cc2)[C@@](C)(c2ccc(Cl)cc2)N1C(=O)N1CCN(CCCS(C)(=O)=O)CC1` [RG-7112], the “cytotoxic activity, median IC50 p53 wild-type vs. p53 mutant cell lines” value is listed as “lower median IC50 values for p53 wild-type vs. p53 mutant cell lines”.
